Data taken from patent US20230096766A1, “AMINO ACID HAVING FUNCTIONAL GROUP CAPABLE OF INTERMOLECULAR HYDROGEN BONDING, PEPTIDE COMPOUND CONTAINING SAME AND METHOD FOR PRODUCTION THEREOF” (Chugai Seiyaku Kabushiki Kaisha, priority 2018, published 2023).
Read-outs that look alike come from different tables or passages of the source. One block for each compound: values may come before it. Where a SMILES comes first, the peptide text is derived from it. Bridges are numbered along the chain shown (N, C = ends). [ ]: non-standard residue; d: D form. The star is where a group is joined. NMeHph(3-OMe-4-CONHMe) = CNC(=O)c1ccc(CC[C@H](NC)C(=O)O)cc1OC; NMeAbu(3,3-F2-piperidino) = CN[C@@H](CCN1CCCC(F)(F)C1)C(=O)O; Ethyl(2-morpholino) = C1CN(CC*)CCO1; NMeF = CN[C@@H](Cc1ccccc1)C(=O)O; NMeD = CN[C@@H](CC(=O)O)C(=O)O; CH2CONHtBu = CC(C)(C)NC(=O)C*; NMeL = CN[C@@H](CC(C)C)C(=O)O; NMeV = CN[C@H](C(=O)O)C(C)C; NMeAbu = CC[C@H](NC)C(=O)O; NMeA = CN[C@@H](C)C(=O)O; Piperidide = C1CCN(*)CC1; NBuGly = CCCCNCC(=O)O; NPrGly = CCCNCC(=O)O; Bn = c1ccc(C*)cc1; Sar = CNCC(=O)O; tBu = CC(C)(C)*

Columns and labels:
[1] = system: Caco-2; assay: Membrane permeability test of cyclic peptides (Caco-2, modified/improved method of WO 2018/124162)
[2] = Actual measurement of pKa of amino acid side chains by titration (Sirius T3) on three-residue peptides; type: physicochemical; conditions: for pKa / basic pKa: measured by titration (Sirius T3), 25° C., 0.15M; for pKa: amino acid X in three-residue peptide ZMeGly-X-MeGly-pip (Table 24, second part); for basic pKa: amino acid X in three-residue peptide ZMeGly-X-MeGly-pip (Table 24)
Description: pKas and basic pKas can be determined by a conventional method. For example, they can be measured by a method such as that described in Experimental Chemistry Lecture 5, “Thermal Measurements and Equilibrium”, p. 460 (edited by The Chemical Society of Japan, published by Maruzen Co., Ltd.). More specifically, they can be measured by a method described in Reference Example 3-1.
Herein, measurement of pKas of amino acid side chains was carried out according to the following procedure.
Sirius T3 (Sirius Analytical Instruments Ltd., Forest Row, East Sussex, RH18 5DW, UK)
0.15 M KCl was added to about 1 mg of a test substance as a powder or in about 100 μL of a 10 mM DMSO solution. When the test substance was a basic compound, 0.5 M HCl was added until pH 2 and the test substance was then titrated to pH 12 with 0.5 M KOH.
When the test substance was an acidic compound, 0.5 M KOH was added until pH 12 and the test substance was then titrated to pH 2 with 0.5 M HCl.
Titration operations were automatically performed by T3 manufactured by Sirius, and pKas were determined from the resulting titration curves using Sirius T3 Refinement software.
pKas were similarly determined using imipramine HCl, propranolol HCl, and warfarin as reference compounds, and were confirmed to be within the test results obtained in Sirius. pKas of amino acid side chains were determined by synthesizing a sequence in which the amino acid to be evaluated is introduced into the second residue (the position X in the following table) of a peptide composed of three residues as shown below.

[3] = Membrane permeability test of cyclic peptides (Caco-2, modified/improved method of WO 2018/124162); conditions: human, Caco-2, Caco-2 (cm/sec)
[4] = amino acid side chain, Sirius T3 titration
[5] = membrane permeability of cyclic peptides, Caco-2

Compound: CC(C)(CO)COC[C@H](N)C(=O)O [Ser(2-Me2-PrOH), O-(3-hydroxy-2,2-dimethylpropyl)-L-serine]
- membrane permeability compared with counterpart peptides ([1]; pairwise comparison of matched cyclic peptides, result in words): tended to have better membrane permeability than Ser(nPrOH)

- pKa [2]: 5.7
Compound: CN[C@@H](CCc1noc(=O)[nH]1)C(=O)O [MeAbu(5-Oxo-Odz)]

- measured basic pKa [2, 4]: 9.1
Compound: CN(C)CCOC[C@H](N)C(=O)O [Ser(Et-2-NMe2)]

Compound: CC(C)C[C@@H]1NC(=O)[C@H](C)N(C)C(=O)C[C@@H](C(=O)N2CCCCC2)NC(=O)[C@H](CC(C)C)N(C)C(=O)CN(C)C(=O)[C@H]([C@@H](C)O)NC(=O)[C@H](C)N(C)C(=O)[C@H](Cc2ccccc2)N(C)C(=O)[C@H](COCc2ccccc2)NC(=O)[C@H](Cc2ccccc2)N(C)C(=O)[C@H](CC(C)C)N(C)C1=O [pd179] ([NMeA]L[NMeL][NMeF]S(Bn)[NMeF][NMeA]T[Sar][NMeL]D-Piperidide; lactam N-11)
- Papp ([3]; Table 35, Papp, sequences having Papp ≥ 1.0 × 10^−6 at ARC = 3): 2 ×10⁻⁶ cm/s
- Caco-2 ([1]; Table 36, Papp, sequences having Papp ≥ 1.0 × 10^−6 at ARC = 3): 2e-06 cm/s

Compound: CCCCN1CC(=O)N(C)[C@@H](CC(C)C)C(=O)N[C@H](C(=O)N2CCCCC2)CC(=O)N(C)[C@@H](CC)C(=O)N[C@@H](CC(C)C)C(=O)N(C)[C@@H](CC(C)C)C(=O)N(C)[C@@H](Cc2ccccc2)C(=O)N[C@@H](COCCN2CCOCC2)C(=O)N(C)[C@@H](CC)C(=O)N(C)[C@@H](CC(C)C)C(=O)N[C@@H]([C@@H](C)O)C1=O [pd482] ([NMeAbu]L[NMeL][NMeF]S(Ethyl(2-morpholino))[NMeAbu][NMeL]T[NBuGly][NMeL]D-Piperidide; lactam N-11)
- Caco-2 ([1]; Papp, membrane permeability, cyclic peptides comprising MeAbu(pip-4-F2), MeAbu(Mor), Ser(Et-2-Mor), MeAbu(pip-3-F2) or Abu(5-Oxo-Odz) (Table 29)): 1.1e-06 cm/s

- pKa [2]: 5.7
Compound: CN[C@@H](CCN1CCCC(F)(F)C1)C(=O)O [MeAbu(pip-3-F2)]

- basic pKa [2]: 6.7
Compound: CN[C@@H](CCN1CCC(F)(F)CC1)C(=O)O [MeAbu(pip-4-F2)]

- measured pKa [2, 4]: 3.8
Compound: CS(=O)(=O)NC(=O)CC[C@H](N)C(=O)O [Gln(Ms)]

- basic pKa [2]: 7.2
Compound: N[C@@H](COCCN1CCOCC1)C(=O)O [Ser(Et-2-Mor)]

- basic pKa [2]: 6.8
Compound: CN[C@@H](CCN1CCOCC1)C(=O)O [MeAbu(Mor)]

Compound: CCCN1CC(=O)N(C)[C@@H](CC(C)C)C(=O)N[C@@H](CC(C)C)C(=O)N(C)[C@@H](Cc2ccccc2)C(=O)N(C)[C@@H](C)C(=O)N[C@H](C(=O)N2CCCCC2)CC(=O)N[C@H](CC(C)C)C(=O)N(C)[C@@H](Cc2ccccc2)C(=O)N[C@@H](COCC(=O)NC(C)(C)C)C(=O)N(C)[C@@H](CC(C)C)C(=O)N[C@@H]([C@@H](C)O)C1=O [AP11] ([dL][NMeF]S(CH2CONHtBu)[NMeL]T[NPrGly][NMeL]L[NMeF][NMeA]D-Piperidide; lactam N-11)
- Caco-2 [1, 5]: 1.1e-06 cm/s

Compound: CC(C)C[C@@H]1NC(=O)[C@H](Cc2ccccc2)N(C)C(=O)[C@@H](C)NC(=O)C[C@@H](C(=O)N2CCCCC2)N(C)C(=O)[C@H](Cc2ccccc2)N(C)C(=O)[C@H](Cc2ccccc2)N(C)C(=O)[C@H](COC(C)(C)C)NC(=O)[C@H](CC(C)C)N(C)C(=O)CN(C)C(=O)[C@H]([C@@H](C)O)NC(=O)[C@H](CC(C)C)N(C)C1=O [pd224] ([dA][NMeF]L[NMeL]T[Sar][NMeL]S(tBu)[NMeF][NMeF][NMeD]-Piperidide; lactam N-11)
- Papp (Caco-2, Caco-2 (cm/sec)): 1 ×10⁻⁶ cm/s

Compound: CC(C)C[C@@H]1NC(=O)CN(C)C(=O)[C@H](Cc2ccccc2)N(C)C(=O)[C@@H](C)NC(=O)C[C@@H](C(=O)N2CCCCC2)NC(=O)[C@H](Cc2ccccc2)N(C)C(=O)[C@H](Cc2ccccc2)N(C)C(=O)[C@H](COC(C)(C)C)NC(=O)[C@H](CC(C)C)N(C)C(=O)[C@H](Cc2ccccc2)NC(=O)[C@H]([C@@H](C)O)NC1=O [pd248] ([dA][NMeF][Sar]LTF[NMeL]S(tBu)[NMeF][NMeF]D-Piperidide; lactam N-11)
- Papp (Caco-2, Caco-2 (cm/sec) Papp): 0.014 ×10⁻⁶ cm/s

Compound: CC[C@H](C)[C@@H]1NC(=O)[C@H](CC(C)C)N(C)C(=O)CN(C)C(=O)[C@H]([C@@H](C)O)NC(=O)[C@H](Cc2ccccc2)N(C)C(=O)[C@H](CC(C)C)NC(=O)[C@H](Cc2ccccc2)N(C)C(=O)[C@@H](CC(C)C)NC(=O)C[C@@H](C(=O)N2CCCCC2)NC(=O)[C@H](CC(C)C)N(C)C(=O)[C@H](Cc2ccccc2)N(C)C1=O [pd225] ([dL][NMeF]L[NMeF]T[Sar][NMeL]I[NMeF][NMeL]D-Piperidide; lactam N-11)
- Papp (Caco-2, Caco-2 (cm/sec)): 1 ×10⁻⁶ cm/s

Compound: CNC(=O)c1ccc(CC[C@H]2C(=O)N[C@@H]([C@@H](C)O)C(=O)N(C)CC(=O)N(C)[C@@H](CC(C)C)C(=O)N[C@@H](CC(C)C)C(=O)N(C)[C@@H](Cc3ccccc3)C(=O)N(C)[C@@H](CC(C)C)C(=O)N[C@H](C(=O)N3CCCCC3)CC(=O)N[C@H](C(C)C)C(=O)N(C)[C@@H](CC(C)C)C(=O)N[C@@H](C(C)C)C(=O)N2C)cc1OC [AP226] ([dV][NMeL]V[NMeHph(3-OMe-4-CONHMe)]T[Sar][NMeL]L[NMeF][NMeL]D-Piperidide; lactam N-11)
- Papp [3, 5]: 0.57 ×10⁻⁶ cm/s
- Caco-2 [1, 5]: 1e-06 cm/s

Compound: CC(C)C[C@@H]1NC(=O)[C@H](Cc2ccccc2)N(C)C(=O)[C@@H](C(C)C)NC(=O)C[C@@H](C(=O)N2CCCCC2)NC(=O)[C@H](C(C)C)N(C)C(=O)[C@H](Cc2ccccc2)N(C)C(=O)[C@H](COC(C)(C)C)NC(=O)[C@H](CCN2CCCC(F)(F)C2)N(C)C(=O)CN(C)C(=O)[C@H]([C@@H](C)O)NC(=O)[C@H](CC(C)C)N(C)C1=O [pd387] ([dV][NMeF]L[NMeL]T[Sar][NMeAbu(3,3-F2-piperidino)]S(tBu)[NMeF][NMeV]D-Piperidide; lactam N-11)
- Papp (Caco-2, Caco-2): 3.5 ×10⁻⁶ cm/s
